From patent US6426355B1, “Heterocyclic carboxamide-containing thiourea inhibitors of herpes viruses containing phenylenediamine group” (American Home Products, priority 1998, dated 2002)
Values after ≈ are worked out from the molar mass of the structure shown.

Experiments:
[1] = system: HCMV recombinant mutant virus (RV145); assay: HCMV microtiter plate assay (beta-glucuronidase reporter); assay type: cell-based, Human Cytomegalovirus; conditions: for IC50: Human betaherpesvirus 5, Fibroblast, read-out: IC50 (ug/ml) HCMV; for IC50 (ug/ml) HCMV: HCMV in human foreskin fibroblasts
How it was run: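 Human foreskin fibroblasts were infected with RV145 in the presence of inhibitor. β-glucuronidase under a viral promoter served as the replication marker. At 96 h post-infection, lysates in pH 7.0 phosphate with Triton X-100/sarkosyl were assayed colorimetrically or fluorometrically, and IC50 was estimated from varying inhibitor amounts.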

VZV strain Ellen = assay: VZV Antiviral (ELISA) assay; assay type: cell-based; conditions: for IC50: Human alphaherpesvirus 3, VZV strain Ellen in HFF cells, read-out: IC50 (ug/ml) VZV; for inhibition at 10 µg/mL: Human alphaherpesvirus 3, read-out: % inhibition 10 ug/ml VZV, at 10 ug/ml, VZV strain Ellen in HFF cells; for IC50 (ug/ml) VZV / % inhibition 10 ug/ml VZV: VZV strain Ellen in HFF cells; for % inhibition 10 ug/ml VZV: at 10 ug/ml
How it was run: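 HFF cells infected with VZV Ellen at low multiplicity (<0.1) overnight were seeded at 3.5×10^4 cells/well in DMEM with 2% FBS plus compound and incubated three days at 37° C., 5% CO2. Viral replication was read by ELISA against glycoprotein II with β-galactosidase fluorogenic readout (ex 365/em 450 nm); IC50 relative to no-compound fluorescence.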

HSV-1 = assay: HSV Antiviral (ELISA) assay; assay type: cell-based; conditions: for IC50: Human alphaherpesvirus 1, HSV-1 in Vero cells, read-out: IC50 (ug/ml) HSV; for IC50 (ug/ml) HSV: HSV-1 in Vero cells
How it was run: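 Vero cells in DMEM/2% FBS pretreated with compound 30 min before HSV-1 infection (MOI 0.006), then ~24 h at 37 °C. Viral gD detected by ELISA with β-galactosidase secondary and 4-methylumbelliferyl-galactoside (ex 365/em 450 nm); IC50 from fluorescence versus untreated infected cells.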

Row | Structure (SMILES) | IC50 [1] | IC50 (VZV strain Ellen) | inhibition at 10 µg/mL (VZV strain Ellen) | IC50 (HSV-1) | IC50 (ug/ml) HCMV [1] | IC50 (ug/ml) VZV (VZV strain Ellen) | IC50 (ug/ml) HSV (HSV-1) | % inhibition 10 ug/ml VZV (VZV strain Ellen)
1 | NC(=O)c1cccc(NC(=S)Nc2ccc(NC(=O)c3csnn3)cc2)c1 [Example 1005, [1,2,3]Thiadiazole-4-carboxylic acid {4-[3-(3-carbamoyl-phenyl)-thioureido]-phenyl}-amide] | 2 µg/mL (≈ 5.02 µM) | > 10 µg/mL | 16% | > 10 µg/mL | – | – | – | –
2 | O=C(Nc1ccc(NC(=S)NCCc2cccc(Cl)c2)cc1)c1csnn1 [Example 562] | – | – | – | – | 0.004 µg/mL (≈ 0.00957 µM) | 8 µg/mL (≈ 19.1 µM) | >10 µg/mL | –
3 | O=C(Nc1ccc(NC(=S)NCc2cc(C(F)(F)F)cc(C(F)(F)F)c2)cc1)c1ccco1 [Example 547] | – | – | – | – | 0.006 µg/mL (≈ 0.0123 µM) | 10 µg/mL (≈ 20.5 µM) | >10 µg/mL | –
4 | CN(c1ccc(NC(=S)Nc2ccc(NC(=O)c3csnn3)cc2)cc1Cl)C1CCN(Cc2ccccc2)C1 (stereo not drawn) [Example 905, [1,2,3]Thiadiazole-4-carboxylic acid [4-(3-{4-[(1-benzyl-pyrrolidin-3-yl)-methyl-amino]-3-chloro-phenyl}-thioureido)-phenyl]-amide] | 0.3 µg/mL (≈ 0.519 µM) | 2 µg/mL (≈ 3.46 µM) | 82% | 4 µg/mL (≈ 6.92 µM) | – | – | – | –
5 | CC(=O)Nc1cc(Cl)cc(NC(=S)Nc2ccc(NC(=O)c3csnn3)cc2)c1 [Example 644] | – | – | – | – | 0.03 µg/mL (≈ 0.0671 µM) | 8 µg/mL (≈ 17.9 µM) | >10 µg/mL | –
6 | O=C(Nc1ccc(NC(=S)Nc2ccc(F)c(Cl)c2)cc1)c1ccco1 [Example 969, Furan-2-carboxylic acid {4-[3-(3-chloro-4-fluoro-phenyl)-thioureido]-phenyl}-amide] | 0.03 µg/mL (≈ 0.077 µM) | > 10 µg/mL | 40% | > 10 µg/mL | – | – | – | –
7 | CC(C)c1cccc(NC(=S)Nc2ccc(NC(=O)c3csnn3)cc2)c1 [Example 450] | – | – | – | – | 0.05 µg/mL (≈ 0.126 µM) | >10 µg/mL | >10 µg/mL | –
8 | O=C(Nc1ccc(NC(=S)NCc2ccccc2)cc1)c1csnn1 [Example 539] | – | – | – | – | 0.036 µg/mL (≈ 0.0974 µM) | >10 µg/mL | >10 µg/mL | –
9 | O=C(Nc1ccc(NC(=S)Nc2ccc(F)c(C(F)(F)F)c2)cc1)c1csnn1 [Example 600] | – | – | – | – | 0.012 µg/mL (≈ 0.0272 µM) | >10 µg/mL | >10 µg/mL | –
10 | CN(C)c1ccc(NC(=S)Nc2ccc(NC(=O)c3csnn3)cc2)cc1Cl [Example 902, [1,2,3]Thiadiazole-4-carboxylic acid {4-[3-(3-chloro-4-dimethylamino-phenyl)-thioureido]-phenyl}-amide] | 0.12 µg/mL (≈ 0.277 µM) | > 10 µg/mL | 10% | > 10 µg/mL | – | – | – | –
11 | CSc1ccc(NC(=S)Nc2ccc(NC(=O)c3ccco3)cc2)cc1Cl [Example 897, Furan-2-carboxylic acid {4-[3-(3-chloro-4-methylsulfanyl-phenyl)-thioureido]-phenyl}-amide] | 0.037 µg/mL (≈ 0.0885 µM) | > 10 µg/mL | 62% | > 10 µg/mL | – | – | – | –
12 | Nc1c(Cl)cc(C(F)(F)F)cc1NC(=S)Nc1ccc(NC(=O)c2csnn2)cc1 [Example 534] | – | – | – | – | 0.05 µg/mL (≈ 0.106 µM) | >10 µg/mL | 7 µg/mL (≈ 14.8 µM) | –
13 | CN(C)c1ccc(Cl)cc1NC(=S)Nc1ccc(NC(=O)c2ccco2)cc1 [Example 489] | – | – | – | – | 0.17 µg/mL (≈ 0.41 µM) | 3.5 µg/mL (≈ 8.44 µM) | 5 µg/mL (≈ 12.1 µM) | 99%
14 | Cc1ccc(NC(=S)Nc2ccc(NC(=O)c3ccco3)cc2)cc1Cl [Example 233] | – | – | – | – | 0.09 µg/mL (≈ 0.233 µM) | >10 µg/mL | >10 µg/mL | 30%
15 | Cc1nc(C(=O)Nc2ccc(NC(=S)Nc3cc(Cl)cc(Cl)c3)cc2)cs1 [Example 1138, 2-Methyl-thiazole-4-carboxylic acid {4-[3-(3,5-dichloro-phenyl)-thioureido]-phenyl}-amide] | 0.65 µg/mL (≈ 1.49 µM) | > 10 µg/mL | – | > 10 µg/mL | – | – | – | –
16 | CCOC(=O)Nc1ccc(NC(=S)Nc2ccc(NC(=O)c3ccco3)cc2)cc1Cl [Example 398] | – | – | – | – | 0.13 µg/mL (≈ 0.283 µM) | >10 µg/mL | >10 µg/mL | 5%
17 | COc1cc(NC(=S)Nc2ccc(NC(=O)c3ccco3)cc2)cc(OC)c1 [Example 467] | – | – | – | – | 0.12 µg/mL (≈ 0.302 µM) | >15 µg/mL | >10 µg/mL | 93%
